# Test results published in patent US11034702B2, “Thienoisoquinolines and their derivatives for the treatment of cancer” (VALORBEC, SOCIÉTÉ EN COMMANDITE, priority 2016, dated 2021).
# Entries after “also recorded” stand apart in the source; their conditions may differ.
# Key:
# HeLa cells [1] = experiment: Mitotic arrest (percentage of cells in mitosis) in HeLa cells; format: cell-based, human
# Procedure: (§1) There were more rounded mitotic cells after C75 treatment in comparison to the control. FIG. 1B) is a line graph showing the percentage of HeLa and HFF1 cells in mitosis after treatment with various concentrations of C75 for 8 hours. The bars indicate standard deviation. FIG. 1C) is a series of images showing cells that were fixed and co-stained for tubulin (microtubules) and DAPI (DNA). Treatment of HeLa cells with 300 nM C75 caused the mitotic spindles to be disorganized, while they were not affected in HFF1 cells. […] The scale bar for the cells is 10 μm. FIG. 1D) is a cartoon schematic showing the key features of a metaphase cell.
# (§2) FIG. 2A) is a line graph showing the percentage of HCT116 (p53−/−) cells, A549 cells, HeLa cells and H1299 cells in mitosis after treatment with various concentrations of C75 for one population doubling time. All of the cell lines show an increase in the proportion of mitotic cells after treatment with 200 nM C75. The bars indicate standard deviation. […] While the mitotic spindles were not dramatically altered by C75 in HFF1 cells, they were monopolar (as shown) or fragmented in the other cell types. […] The mitotic spindles were more strongly fragmented after C75 treatment in these cells vs. the cells in FIG. 2B). […] While mitotic spindles recovered bipolarity after removing nocodazole, they remained multipolar after removing C75. FIG. 2F) is a series of time-lapse images of a live HeLa cell expressing GFP:tubulin after treatment with C75 as shown in 2D) and 2E). The scale bar for all cells is 10 μm. FIG. 2G) is a schematic showing the putative target for C75. Healthy cells have two centrosomes that separate and form a bipolar spindle, while cancer cells have aberrant centrosomes that cluster to form ‘pseudo’ bipolar spindles, and C75 may target this process and their integrity.
# FIG. 3A) is a line graph showing the percentage of mitotic HeLa or HFF1 cells treated with a range of paclitaxel (Taxol™; tubulin-targeting drug) concentrations+/−C75 as indicated. The bars indicate standard deviation. […]
# HFF1 cells [2] = experiment: Mitotic spindle phenotype in HFF1 cells; format: cell-based
# Procedure: as §1
# FIG. 2A) is a line graph showing the percentage of HCT116 (p53−/−) cells, A549 cells, HeLa cells and H1299 cells in mitosis after treatment with various concentrations of C75 for one population doubling time. All of the cell lines show an increase in the proportion of mitotic cells after treatment with 200 nM C75. The bars indicate standard deviation. […]
# (§3) C75 was also tested for efficacy in different cancer cell lines. […] To further assess the role of C75 in affecting centrosomes, HeLa cells were treated with C75 for a short period of time (5 minutes), then C75 was removed and the cells were analyzed for spindle phenotypes (schematic in FIG. 2D). […]
# [3] = test system: A549 (lung carcinoma) cells; experiment: IC50 (viability) in A549 cells; format: cell-based; settings: Homo sapiens
# Procedure: 19 variants with different structural modifications have been made. […] In particular, it is shown that C75 causes death in multiple cancer cells with IC50 values in the 100 nM range, including breast cancers (MCF7, BT549), lung cancer (A549), colorectal cancer (HCT116) in addition to HeLa cells (cervical cancer).
# HeLa cells [4] = experiment: Mitotic spindle / centrosome phenotype in HeLa cells (tubulin and DAPI staining, live imaging); format: cell-based, human
# Procedure: as §1, §2
# FIG. 3A) is a line graph showing the percentage of mitotic HeLa or HFF1 cells treated with a range of paclitaxel (Taxol™; tubulin-targeting drug) concentrations+/−C75 as indicated. The bars indicate standard deviation. FIG. 3B) is a series of bar graphs showing the proportion of HCT116 cells that have monopolar spindles, bipolar spindles with aligned chromosomes, bipolar spindles with misaligned chromosomes and multipolar/fragmented spindles after treatments as shown. Treatments include DMSO (control), varying concentrations of paclitaxel and/or varying concentrations of C75 after 7 hours. While treatment of HCT116 cells with 2.5 nM paclitaxel caused a threshold of mitotic spindle phenotypes, adding increasing concentrations of C75 in combination with 2.5 nM paclitaxel caused the phenotypes to progressively worsen. FIG. 3C) is bar graph showing the average distance between centrosome fragments in HCT116 cells after treatments as shown. While centrosome fragments moved closer together with increased concentrations of paclitaxel, they moved further apart with increased concentrations of C75. […] FIG. 3E) is a line graph showing the percentage of mitotic HeLa or HFF1 cells treated with a range of nocodazole concentrations+/−C75 as indicated. The bars indicate standard deviation. FIG. 3F) is a series of images showing fixed HeLa cells after treatment with C75+/− nocodazole co-stained for tubulin, γ-tubulin and DNA (DAPI). […] Adding nocodazole to cells treated with 300 nM C75 caused mitotic spindle phenotypes to worsen and appear more similar to those after treatment with 600 nM C75. The scale bar for all cells is 10 μm. FIG. 3G) is a bar graph showing the percentage of phenotypes observed for metaphase HeLa cells treated with nocodazole or C75, or both for 20 minutes (n>15 per treatment).
# Spindle fragmentation only occurred after extensive microtubule depolymerization in colchicine-treated cells, while the spindle poles fragmented prior to changes in microtubules after C75 treatment. The scale bar for all cells is 10 μm.
# C75 was further tested and found to cause mitotic arrest in HeLa cells. […]
# HFF1 cells [5] = experiment: Percentage of mitotic HFF1 cells with paclitaxel +/- C75; format: cell-based
# Source text: FIG. 3A) is a line graph showing the percentage of mitotic HeLa or HFF1 cells treated with a range of paclitaxel (Taxol™; tubulin-targeting drug) concentrations+/−C75 as indicated. The bars indicate standard deviation. FIG. 3B) is a series of bar graphs showing the proportion of HCT116 cells that have monopolar spindles, bipolar spindles with aligned chromosomes, bipolar spindles with misaligned chromosomes and multipolar/fragmented spindles after treatments as shown. Treatments include DMSO (control), varying concentrations of paclitaxel and/or varying concentrations of C75 after 7 hours. While treatment of HCT116 cells with 2.5 nM paclitaxel caused a threshold of mitotic spindle phenotypes, adding increasing concentrations of C75 in combination with 2.5 nM paclitaxel caused the phenotypes to progressively worsen. FIG. 3C) is bar graph showing the average distance between centrosome fragments in HCT116 cells after treatments as shown. While centrosome fragments moved closer together with increased concentrations of paclitaxel, they moved further apart with increased concentrations of C75. […] FIG. 3E) is a line graph showing the percentage of mitotic HeLa or HFF1 cells treated with a range of nocodazole concentrations+/−C75 as indicated. The bars indicate standard deviation. […]
# H1299 cells = experiment: Mitotic spindle phenotype in H1299 cells; format: cell-based, human; settings: H1299, 300 nM, 6-8 hours
# Procedure: as §2, with “Healthy cells have two centrosomes that separate and form a bipolar spindle, while cancer cells have aberrant centrosomes that cluster to form ‘pseudo’ bipolar spindles, and C75 may target this process and their integrity.” left out
# as §3
smiles,measurement,setting,value
COc1ccc(S(=O)(=O)N2Cc3ccccc3-c3sc(Br)cc32)cc1 [Compound C75],effect of C75 on selectivity of paclitaxel and nocodazole,"HeLa cells [1]; HeLa vs. HFF1 cells, percentage of mitotic cells, tubulin drug +/- C75",enhances the selectivity
same,concentration causing mitotic arrest,"HeLa cells [1]; HeLa, within one population doubling time",100 to 200 nM
same,"selectivity of mitotic arrest, HeLa vs. HFF1","HeLa cells [1]; nanomolar concentrations, 8 hours",selectively causes mitotic arrest
same,mitotic spindle phenotype,"HFF1 cells [2]; HFF1, 300 nM",not affected; also recorded: majority of HFF1 cells had bipolar spindles
same,mitotic spindle phenotype,"HFF1 cells [2]; HFF1, 750 nM",disorganized
same,IC50,[3],109 nM
same,mitotic spindle phenotype,"HeLa cells [4]; HeLa, 300 nM",spindle organization was perturbed; also recorded: most of the spindles were severely fragmented
same,mitotic spindle phenotype,"HeLa cells [4]; HeLa, 750 nM",Centrosomes were fragmented or declustered and microtubules were completely absent; also recorded: complete fragmentation of the mitotic spindles
same,spindle phenotype at lower concentrations,"HeLa cells [4]; HeLa, 8 hours, 30 nM colchicine or 300 nM C75",disrupted spindle poles
same,spindle phenotype at higher concentrations,"HeLa cells [4]; HeLa, 8 hours, 40 or 50 nM colchicine, 400 or 500 nM C75",spindle fragmentation prior to extensive loss of microtubules
same,time after exposure until centrosomes fragmented or declustered and microtubules collapsed,"HeLa cells [4]; live imaging, HeLa GFP:tubulin",4 to 6 min
same,time until microtubule polymers grew again,"HeLa cells [4]; live imaging, HeLa, after wash-out, spindles tri- or multipolar",20 to 30 min
same,spindle phenotype after drug wash-out,"HeLa cells [4]; metaphase HeLa, 5 minutes treatment, washed out, imaged after 40 minutes",tri- or multipolar spindles formed
same,"spindle phenotype, drugs alone vs. together","HeLa cells [4]; metaphase HeLa, nocodazole or C75 or both, 20 minutes",disorganized and/or fragmented mitotic spindles
same,effect of C75 on non-cancerous cells treated with paclitaxel,HFF1 cells [5],protective effect
same,mitotic spindle phenotype,H1299 cells,"mix of monopolar, bipolar and multipolar spindles"
